Laboratory results reported in article PMC9131871, “Impact of Micropolymorphism Outside the Peptide Binding Groove in the Clinically Relevant Allele HLA-C*14 on T Cell Responses in HIV-1 Infection” (Journal of Virology, 2022).

Tests used:
HLA-C*14:02 = HLA-C*14:02 (Homo sapiens, UniProt P10321, A176E/A330V/A35S/A97T/C350S/D114A/D33S/L171W/L180R/L218V/M285V/M309V/M331V/P208H/Q277E/Q291P/R121W/R243W/S123F/S297R/S48A/T329A/T363A/V319A); assay: HLA stabilization assay on RMA-S-C1402 cells; format: cell-based; conditions: for relative affinity in hierarchy of peptide-HLA-C*14 binding (HLA-C*14:02): peptide concentrations from 0.1 to 100 μM, 6 epitope peptides compared; for binding to HLA-C*14:02 (stabilization of surface HLA expression): 100 μM peptide, 26°C 1 h then 37°C 3 h, MAb DT-9 staining, flow cytometry, triplicate assays
Text: (§1) We next sought to confirm the HLA-C*14:02/C*14:03 restriction of the HIV-1 peptides identified by LC-MS/MS. First, we tested their ability to bind to HLA-C*14:02 or HLA-C*14:03 using HLA stabilization assays. Of the 25 HIV-1 peptides, three Env peptides, Env SI8, Env AM11, and Env VM9, are located in variable regions V2 and V3. In addition, Pol AF10, Pol PF8, Pol VWL9, and Env YI9 are located in regions where high sequence variation is reported in the LANL database. Therefore, we excluded these peptides from further analysis. The other 18 peptides were synthesized and tested for binding to HLA-C*14:02/C*14:03 by analyzing their ability to stabilize surface HLA expression on TAP-defective RMA-S cell lines expressing HLA-C*14:02 (RMA-S-C1402) or HLA-C*14:03 (RMA-S-C1403). These RMA-S cell lines express equivalent levels of HLA-C*14:02 and HLA-C*14:03 on the cell surface at 26°C, and surface HLA expression declines to very low levels when the cells are warmed to 37°C in the absence of exogenously added stabilizing peptides (Fig. 2A). Peptide binding was determined by evaluating whether HLA-I expression was stabilized in the presence of 100 μM peptide.
(§2) FIG 2 HLA-C*14:02/14:03 binding of HIV-1 peptides eluted from NL4-3-infected .221-C1402 and .221-C1403 cells as assessed by HLA stabilization assay using RMA-S cell lines. (A) Histogram plots showing surface expression of HLA-C*14:02 or HLA-C*14:03 on RMA-S-C1402 or RMA-S-C1403 cells at 26°C and after cells cultured at 26°C had been warmed to 37°C for 3 h. MFI values of cells cultured at 26°C were 27.4 for HLA-C*14:02 and 28.1 for HLA-C*14:03. MFI values of cells cultured at 37°C for 3 h were 5.0 for HLA-C*14:02 and 6.54 for HLA-C*14:03. (B) Analysis of binding of 14 HIV-1 NL4.3 peptides identified by LC-MS/MS to HLA-C*14:02 (blue) or HLA-C*14:03 (red) as measured in HLA class I stabilization assays using RMA-S-C1402 or RMA-S-C1403 cells. (C) Analysis of binding of 9 additional variant peptides to HLA-C*14:02 (blue) or C*14:03 (red). For panels B and C, peptides were tested at a concentration of 100 μM. Results are plotted as percent surface HLA-I expression relative to that at 26°C, calculated as the ratio of the MFI of peptide-pulsed RMA-S-C1402 or RMA-S-C1403 cells to that of control (non-peptide-pulsed) cells kept at 26°C, multiplied by 100. Means and standard deviations (SDs) from triplicate assays are shown. Statistical analyses were performed by unpaired t test. The P values were corrected for multiple testing. *, P < 0.05 and q < 0.05; **, P < 0.01 and q < 0.03; ***, P < 0.001 and q < 0.005.
(§3) The relative affinity of peptide binding to HLA-C*14:02 and -C*14:03 was examined using RMA-S-C1402 and RMA-S-C1403 cells as previously described ([15]). Briefly, RMA-S cells were cultured at 26°C for 16 h, pulsed with peptides at 26°C for 1 h, and subsequently incubated at 37°C for 3 h. Staining of cell surface HLA-C molecules was performed with the HLA-C-reactive monoclonal antibody (MAb) DT-9 ([48]), a gift from Mary Carrington, NIH, and fluorescein isothiocyanate (FITC)-conjugated sheep anti-mouse IgG (Jackson ImmunoResearch). Staining data were acquired on a FACSCanto II instrument (BD Biosciences) and analyzed using FlowJo 10.7.1 software. Relative HLA expression was calculated as the ratio of the mean fluorescence intensity (MFI) of peptide-pulsed RMA-S-C1402 cells or RMA-S-C1403 cells to that of control (non-peptide-pulsed) cells kept at 26°C, multiplied by 100 to express the values for peptide-pulsed cells as a percentage of that for the control cells at 26°C.

HLA-C*14:03 = HLA-C*14:03 (Homo sapiens, UniProt P10321, A176E/A330V/A35S/A97T/C350S/D114A/D33S/L171W/L180R/L218V/M285V/M309V/M331V/P208H/Q277E/Q291P/R121W/R243W/R45H/S123F/S297R/S48A/T329A/T363A/V319A); assay: HLA stabilization assay on RMA-S-C1403 cells; format: cell-based; conditions: for relative affinity in hierarchy of peptide-HLA-C*14 binding (HLA-C*14:03): peptide concentrations from 0.1 to 100 μM, 6 epitope peptides compared; for binding to HLA-C*14:03 (stabilization of surface HLA expression): 100 μM peptide, 26°C 1 h then 37°C 3 h, MAb DT-9 staining, flow cytometry, triplicate assays
Text: as §1, §2, §3

Row | Sequence | relative affinity in hierarchy of peptide-HLA-C*14 binding (HLA-C*14:02) (HLA-C*14:02) | relative affinity in hierarchy of peptide-HLA-C*14 binding (HLA-C*14:03) (HLA-C*14:03) | binding to HLA-C*14:02 (stabilization of surface HLA expression) (HLA-C*14:02) | binding to HLA-C*14:03 (stabilization of surface HLA expression) (HLA-C*14:03)
1 | AFHHVAREL [Nef AL9] | lowest | lowest | – | –
2 | AFSPEVIPM [Gag AM9] | highest | highest | – | –
3 | ASGYIEAEV [Pol AV9, HIV-1 NL4-3 Pol 795–803 peptide …] | – | – | did not exhibit detectable binding | did not exhibit detectable binding
4 | FFREDLAF [Pol FF8, HIV-1 NL4-3 Pol 1–8 peptide FFREDLAF] | – | – | low | low
5 | FLGAAGSTM [Env FM9, HIV-1 NL4-3 Env 522–530 peptide …] | – | – | did not exhibit detectable binding | did not exhibit detectable binding
6 | FMTKALGI [Tat FI8, HIV-1 NL4-3 Tat 38–45 peptide FMTKALGI] | – | – | did not exhibit detectable binding | did not exhibit detectable binding
7 | RFDSRLAF [Nef RF8, HIV-1 NL4-3 Nef 184–191 peptide RFDSRLAF] | – | – | did not exhibit detectable binding | did not exhibit detectable binding
8 | VYYDPSKDL [Pol VYL9, HIV-1 NL4-3 Pol 472–480 peptide …] | – | – | low | low
